Measurements as given in patent publication US6737383B1, “Herbicidal oxadiazolidines” (priority 1999, dated 2004).

What was measured:
bedstraw = test: Test B pre/postemergence bedstraw; format: in vivo, Galium aparine
Outline: (§1)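 Herbicidal effect was estimated by eye on a ten-point control scale after plants spent twelve to sixteen days in a greenhouse following soil or foliar treatment. Foliar sprays targeted plants at one to four leaves; all doses were formulated in a non-phytotoxic solvent with surfactant.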

blackgrass = test: Test B pre/postemergence blackgrass; format: in vivo, Alopecurus myosuroides
Outline: as §1

surinam grass = test: Test B pre/postemergence surinam grass; format: in vivo, Brachiaria decumbens
Outline: as §1

cocklebur = test: Test B pre/postemergence cocklebur; format: in vivo, Xanthium strumarium
Outline: as §1

corn = test: Test B pre/postemergence corn; format: in vivo, Zea mays
Outline: as §1

crabgrass = test: Test B pre/postemergence crabgrass; format: in vivo, Digitaria sanguinalis
Outline: as §1

pigweed = test: Test B pre/postemergence pigweed; format: in vivo, Amaranthus retroflexus
Outline: as §1

rape = test: Test B pre/postemergence rape; format: in vivo, Brassica napus
Outline: as §1

soybean = test: Test B pre/postemergence soybean; format: in vivo, Glycine max
Outline: as §1

sugar beet = test: Test B pre/postemergence sugar beet; format: in vivo, Beta vulgaris
Outline: as §1

velvetleaf = test: Test B pre/postemergence velvetleaf; format: in vivo, Abutilon theophrasti
Outline: as §1

wheat = test: Test B pre/postemergence wheat; format: in vivo, Triticum aestivum
Outline: as §1

wild oat = test: Test B pre/postemergence wild oat; format: in vivo, Avena fatua
Outline: as §1

purple nutsedge = test: Test B pre/postemergence purple nutsedge; format: in vivo, Cyperus rotundus
Outline: as §1

smallflower flatsedge = test: Test B flood test smallflower flatsedge; format: in vivo, Cyperus difformis
Outline: (§2)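 Read-out is a visual response score from 0 (no effect) to 10 (complete control), assigned by comparison with untreated controls. Treatment was applied at the 2-leaf stage, and plants stayed in the greenhouse for twelve to sixteen days before scoring.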

bamyardgrass = test: Test B flood test barnyardgrass; format: in vivo, Echinochloa crus-galli
Outline: as §2

[1] = Preemergence, Rate 62 g/ha, scale of 0 to 10 where 0 is no effect and 10 is complete control
[2] = Preemergence, Rate 125 g/ha, 0 is no effect, 10 is complete control
[3] = Preemergence, Rate 250 g/ha, scale 0 to 10, 0 is no effect, 10 is complete control
[4] = Preemergence, Rate 500 g/ha, scale 0 to 10 (0 no effect, 10 complete control)
[5] = Rate 62 g/ha, Postemergence, scale of 0 to 10 where 0 is no effect and 10 is complete control
[6] = Rate 125 g/ha, Postemergence, scale 0 to 10
[7] = Rate 500 g/ha, Postemergence, scale 0 to 10
[8] = Rate 62 g/ha, headed Pre-emergence (flood test species), scale 0 to 10 (0 no effect, 10 complete control)
[9] = Rate 125 g/ha, Pre-emergence, flood test species, scale 0 to 10 where 0 is no effect and 10 is complete control
[10] = Rate 250 g/ha, Pre-emergence, flood-test species, scale 0 to 10, 0 is no effect, 10 is complete control

Cc1ccccc1-n1c(=O)on(C(=O)N(c2ccc(-c3ccccc3)cc2)C(C)C)c1=O [Compound 187]
0: Bedstraw plant response rating (bedstraw; [1]) | Bedstraw plant response rating (0 to 10 scale) (bedstraw; [2]) | Bedstraw plant response rating (bedstraw; [3]) | Bedstraw plant response rating (bedstraw; [4]) | Bedstraw plant response rating (bedstraw; [5]) | Bedstraw plant response rating (bedstraw; [6]) | Plant response rating (0 to 10; 0 is no effect, 10 is complete control), Bedstraw (bedstraw; Rate 250 g/ha, Postemergence) | Bedstraw plant response rating (bedstraw; [7]) | Blackgrass plant response rating (blackgrass; [1]) | Blackgrass plant response rating (0 to 10 scale) (blackgrass; [2]) | Blackgrass plant response rating (blackgrass; [3]) | Blackgrass plant response rating (blackgrass; [4]) | Blackgrass plant response rating (blackgrass; [5]) | Blackgrass plant response rating (blackgrass; [6]) | Plant response rating (0 to 10; 0 is no effect, 10 is complete control), Blackgrass (blackgrass; Rate 250 g/ha, Postemergence) | Blackgrass plant response rating (blackgrass; [7]) | B. signalgrass plant response rating (surinam grass; [1]) | B. signalgrass plant response rating (0 to 10 scale) (surinam grass; [2]) | B. signalgrass plant response rating (surinam grass; [3]) | B. signalgrass plant response rating (surinam grass; [4]) | B. signalgrass plant response rating (surinam grass; [5]) | B. signalgrass plant response rating (surinam grass; Rate 125 g/ha, Postemergence, scale 0 (no effect) to 10 (complete control)) | Plant response rating, B. signalgrass (surinam grass; Rate 250 g/ha, Postemergence, scale 0 to 10, 0 is no effect, 10 is complete control) | B. signalgrass plant response rating (surinam grass; Rate 500 g/ha, Postemergence, scale 0 to 10, 0 no effect, 10 complete control) | Cocklebur plant response rating (cocklebur; [1]) | Cocklebur plant response rating (0 to 10 scale) (cocklebur; [2]) | Cocklebur plant response rating (cocklebur; [3]) | Cocklebur plant response rating (cocklebur; [4]) | Cocklebur plant response rating (cocklebur; [5]) | Cocklebur plant response rating (cocklebur; [6]) | Plant response rating (0 to 10; 0 is no effect, 10 is complete control), Cocklebur (cocklebur; Rate 250 g/ha, Postemergence) | Cocklebur plant response rating (cocklebur; [7]) | Corn plant response rating (corn; [1]) | Corn plant response rating (0 to 10 scale) (corn; [2]) | Corn plant response rating (corn; [3]) | Corn plant response rating (corn; [4]) | Corn plant response rating (corn; [5]) | Corn plant response rating (corn; [6]) | Plant response rating (0 to 10; 0 is no effect, 10 is complete control), Corn (corn; Rate 250 g/ha, Postemergence) | Corn plant response rating (corn; [7]) | Crabgrass plant response rating (crabgrass; [1]) | Crabgrass plant response rating (0 to 10 scale) (crabgrass; [2]) | Crabgrass plant response rating (crabgrass; [3]) | Crabgrass plant response rating (crabgrass; [4]) | Crabgrass plant response rating (crabgrass; [5]) | Crabgrass plant response rating (crabgrass; [6]) | Plant response rating (0 to 10; 0 is no effect, 10 is complete control), Crabgrass (crabgrass; Rate 250 g/ha, Postemergence) | Crabgrass plant response rating (crabgrass; [7]) | Redroot pigweed plant response rating (pigweed; [1]) | Redroot pigweed plant response rating (0 to 10 scale) (pigweed; [2]) | Redroot pigweed plant response rating (pigweed; [3]) | Redroot pigweed plant response rating (pigweed; [4]) | Redroot pigweed plant response rating (pigweed; [5]) | Redroot pigweed plant response rating (pigweed; [6]) | Plant response rating (0 to 10; 0 is no effect, 10 is complete control), Redroot pigweed (pigweed; Rate 250 g/ha, Postemergence) | Redroot pigweed plant response rating (pigweed; [7]) | Rape plant response rating (rape; [1]) | Rape plant response rating (0 to 10 scale) (rape; [2]) | Rape plant response rating (rape; [3]) | Rape plant response rating (rape; [4]) | Rape plant response rating (rape; [5]) | Rape plant response rating (rape; [6]) | Plant response rating (0 to 10; 0 is no effect, 10 is complete control), Rape (rape; Rate 250 g/ha, Postemergence) | Rape plant response rating (rape; [7]) | Soybean plant response rating (soybean; [1]) | Soybean plant response rating (0 to 10 scale) (soybean; [2]) | Soybean plant response rating (soybean; [3]) | Soybean plant response rating (soybean; [4]) | Soybean plant response rating (soybean; [5]) | Soybean plant response rating (soybean; [6]) | Plant response rating (0 to 10; 0 is no effect, 10 is complete control), Soybean (soybean; Rate 250 g/ha, Postemergence) | Soybean plant response rating (soybean; [7]) | Sugarbeets plant response rating (sugar beet; [1]) | Sugarbeets plant response rating (0 to 10 scale) (sugar beet; [2]) | Sugarbeets plant response rating (sugar beet; [3]) | Sugarbeets plant response rating (sugar beet; [4]) | Sugarbeets plant response rating (sugar beet; [5]) | Sugarbeets plant response rating (sugar beet; [6]) | Plant response rating (0 to 10; 0 is no effect, 10 is complete control), Sugarbeets (sugar beet; Rate 250 g/ha, Postemergence) | Sugarbeets plant response rating (sugar beet; [7]) | Velvetleaf plant response rating (velvetleaf; [1]) | Velvetleaf plant response rating (velvetleaf; [3]) | Velvetleaf plant response rating (velvetleaf; [4]) | Velvetleaf plant response rating (velvetleaf; [5]) | Velvetleaf plant response rating (velvetleaf; [6]) | Plant response rating (0 to 10; 0 is no effect, 10 is complete control), Velvetleaf (velvetleaf; Rate 250 g/ha, Postemergence) | Wheat plant response rating (wheat; [1]) | Wheat plant response rating (wheat; [3]) | Wheat plant response rating (wheat; [4]) | Wheat plant response rating (wheat; [5]) | Wheat plant response rating (wheat; [6]) | Plant response rating (0 to 10; 0 is no effect, 10 is complete control), Wheat (wheat; Rate 250 g/ha, Postemergence) | Wild oats plant response rating (wild oat; [1]) | Wild oats plant response rating (wild oat; [3]) | Wild oats plant response rating (wild oat; [4]) | Wild oats plant response rating (wild oat; [5]) | Wild oats plant response rating (wild oat; [6]) | Plant response rating (0 to 10; 0 is no effect, 10 is complete control), Wild oats (wild oat; Rate 250 g/ha, Postemergence) | Nutsedge plant response rating (purple nutsedge; [1]) | Nutsedge plant response rating (0 to 10 scale) (purple nutsedge; [2]) | Nutsedge plant response rating (purple nutsedge; [3]) | Nutsedge plant response rating (purple nutsedge; [4]) | Nutsedge plant response rating (purple nutsedge; [5]) | Nutsedge plant response rating (purple nutsedge; [6]) | Plant response rating (0 to 10; 0 is no effect, 10 is complete control), Nutsedge (purple nutsedge; Rate 250 g/ha, Postemergence) | Nutsedge plant response rating (purple nutsedge; [7]) | S. Flatsedge plant response rating (smallflower flatsedge; [8]) | S. Flatsedge plant response rating (smallflower flatsedge; [9]) | S. Flatsedge plant response rating (smallflower flatsedge; [10]) | S. Flatsedge plant response rating (smallflower flatsedge; Rate 500 g/ha, Pre-emergence, flood test species, scale 0 to 10 (0 no effect, 10 complete control)) | Barnyardgrass plant response rating (bamyardgrass; [8]) | Barnyardgrass plant response rating (bamyardgrass; [9]) | Barnyardgrass plant response rating (bamyardgrass; [10]) | Plant response rating, Barnyardgrass (bamyardgrass; Rate 500 g/ha, headed Pre-emergence (flood test species), scale 0 to 10 (0 no effect, 10 complete control))
